Reference: paper PMC8316002, “Inhibition of Escherichia coli Lipoprotein Diacylglyceryl Transferase Is Insensitive to Resistance Caused by Deletion of Braun’s Lipoprotein” (Journal of Bacteriology, 2021)
Where a SMILES comes first, the peptide text is derived from it. Bridges are numbered along the chain shown (N, C = ends). [ ]: non-standard residue; d: D form. Bip = N[C@@H](Cc1ccc(-c2ccccc2)cc1)C(=O)O; NMeF = CN[C@@H](Cc1ccccc1)C(=O)O

What was measured:
E. coli Lgt = target: T1, E. coli Lgt (Escherichia coli, UniProt P60955); test: biochemical; conditions: 3 nM Lgt-DDM, 50 μM phosphatidylglycerol, 12.5 μM Pal-IAAC, 50 mM Tris (pH 8), 0.02% DDM, 60 min at RT; luminescence; at least two independent experiments in triplicates; read-out: IC50, inhibition of Lgt biochemical activity
T1 construct: DNA encoding full-length E. coli Lgt fused to a C-terminal Flag tag; Flag (C); made in house; host or cells: E. coli Rosetta 2(DE3) Gold cells (Agilent)
T1 sequence (P60955 whole entry, the tested form may be a part): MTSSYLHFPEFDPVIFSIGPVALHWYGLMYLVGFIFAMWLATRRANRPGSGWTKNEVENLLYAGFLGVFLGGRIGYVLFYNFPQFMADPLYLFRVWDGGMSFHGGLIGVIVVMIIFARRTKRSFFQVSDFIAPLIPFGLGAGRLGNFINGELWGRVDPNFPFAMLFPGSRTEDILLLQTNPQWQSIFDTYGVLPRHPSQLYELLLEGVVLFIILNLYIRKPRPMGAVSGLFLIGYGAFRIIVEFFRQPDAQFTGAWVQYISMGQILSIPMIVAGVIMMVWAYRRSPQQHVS

Solubility (remark) = format: physicochemical; conditions: prevented agar plate-based resistance selections
CFT073 imp4213 = test: Western blot of Lpp forms; format: cell-based, E. coli; conditions: 0.5× MIC, 30 min
Experimental: Bacterial cell samples normalized for equivalent OD600 and resuspended in BugBuster lysis buffer (Fischer Scientific) with the addition of sample buffer (LI-COR), and proteins were separated by SDS-PAGE using 16% Tricine protein gels or NuPAGE 4% to 20% bis-Tris gels (Thermo Fisher Scientific), transferred to nitrocellulose membranes using the iBlot 2 dry blotting system (Invitrogen), and blocked using LI-COR blocking buffer for 30 min. Unless stated otherwise, loading buffer with reducing agents was added and samples were not boiled prior to SDS-PAGE. For the sucrose gradient centrifugation, samples were boiled prior to running the SDS-PAGE. Primary antibodies were used at a final concentration of 1 μg/ml with some exceptions: rabbit anti-Lpp polyclonal antibody (0.1 μg/ml), murine anti-Pal 6D7 antibody (0.5 μg/ml), rabbit anti-GroEL antibody (1:10,000 final dilution), and rabbit anti-OmpA antibody (1:50,000 final dilution). The secondary antibodies were all obtained from LI-COR and used as per manufacturer’s instructions. Images were collected using the Odyssey CLx imaging system (LI-COR) and analyzed by Image Studio Lite.

BW25113 cells, lgt gRNA = test: CRISPRi knockdown sensitization, lgt gRNA; format: cell-based, E. coli; conditions: 2 μM G2824, 0.05 μM globomycin or 0.016 μM ciprofloxacin; OD600 relative to untreated, versus scr or folA gRNA
Excerpt: The two-plasmid bacterial CRISPRi system pdCas9-bacteria_GNE and PGNRNA-bacteria_GNE are based on the AddGene plasmids 44249 and 44251 ([73]), respectively. The plasmid was synthesized in smaller DNA fragments (500 bp to 3 kb) (IDT gBlocks) and assembled by Gibson assembly (NEB) according to the manufacturer’s protocols. Plasmids were confirmed by sequencing (ELIM Bio). gRNAs were designed to target the 5′ end of the gene on the nontemplate strand using Benchling CRISPR software ([74]). gRNAs were cloned into PGNRNA-bacteria using Gibson assembly (NEB) according to the manufacturer’s protocols and sequence confirmed (ELIM Bio).
Bacterial cultures were grown overnight on LB agar supplemented with carbenicillin (50 μg/ml) and chloramphenicol (12.5 μg/ml) to maintain both plasmids, pdCas9-bacteria and PGNRNA-bacteria with each gRNA as appropriate. Cells were scraped from the plate into fresh medium. The OD600 was measured, and the culture was subsequently diluted to an OD600 0.001 in the presence or absence of G2824, globomycin, or ciprofloxacin. Two hundred microliters was transferred to a 96-well plate (Corning) and monitored for growth by measuring the OD600 (EnVision multimode plate reader; PerkinElmer). All treatments were performed in triplicates. The specificity of CRISPRi downregulation was measured using reverse transcriptase quantitative PCR (RT-qPCR).

cells expressing lppΔK = test: Time-kill, CFT073 imp4213 Δlpp complemented with lpp or lppΔK; format: cell-based, E. coli; conditions: 12.5 μM G2824 or 3.2 μM globomycin; CFU; lppΔK (unable to link to PGN) versus WT lpp
Excerpt: To determine if loss of PGN linkage of Lpp leads to increased G2824 bactericidal activity, we treated CFT073 imp4213 Δlpp cells complemented with either WT lpp or a mutant form that is unable to covalently link to PGN (lppΔK). Using the previously described SDS fractionation protocol, we confirmed that while WT Lpp localized to both PAP and non-PAP fractions, the LppΔK mutant was primarily detected in the non-PAP fraction (see Fig. S5A). As we noted earlier, PGN-linked DGPLP (§) and other PGN-linked Lpp forms (†) were primarily detectable in the PAP fraction (Fig. S5A).
Unless stated otherwise, E. coli cells were grown in Luria-Bertani (LB) medium (0.5% yeast extract, 1% tryptone, 0.5% NaCl) at 37°C. […] Growth of MG1655 inducible deletion strains was measured by culturing in the presence of 2-fold dilutions of arabinose (starting arabinose concentrations for CFT073 and MG1655 inducible deletion strains were 4% and 0.8%, respectively). While 2% arabinose was sufficient for WT growth of MG1655 Δlgt, 4% arabinose was used for CFT073 Δlgt based on comparing its growth to that of WT CFT073 as measured by CFU. OD600 growth measurements were performed using an EnVision 2101 multilabel reader plate reader (PerkinElmer) linked with Echo liquid handler (Labcyte). […] Bacterial viability at different time points during the treatment was measured by enumerating CFU. […]

LspA = LspA inhibitor globomycin; cited from earlier work
Excerpt: Using a combination of biochemical and genetic strategies, we believe the Lgt inhibitor G2824 identified in this study inhibits bacterial cell growth through inhibition of the diacylglyceryl transferase activity of Lgt. First, G2824 was identified using a specific Lgt binding assay and confirmed to inhibit Lgt enzymatic function in vitro. Second, the results generated from pharmacologic inhibition of Lgt by G2824 in both CFT073 and MG1655 E. coli strains are highly consistent with the genetic depletion of Lgt, strongly arguing against off-target effects as a main cause of G2824 bactericidal ac ...

WT CFT073 = test: MIC assay, WT CFT073 (Table 1); format: cell-based, E. coli; conditions: Escherichia coli, average of two independent experiments, each in duplicates, CLSI
Experimental: Unless stated otherwise, E. coli cells were grown in Luria-Bertani (LB) medium (0.5% yeast extract, 1% tryptone, 0.5% NaCl) at 37°C. Where indicated, kanamycin (Kan) was added to culture media at a 50-μg/ml final concentration. MIC assays were performed based on Clinical and Laboratory Standards Institute (CLSI) guidelines. For in vitro growth curves, overnight cultures of WT CFT073, CFT073 Δlgt, and CFT073 Δlgt complemented with lgt from E. coli (lgt^Ec) or P. aeruginosa (lgt^Pa) were grown to mid-exponential phase (optical density at 600 nm [OD600] of 0.6) and then diluted to an OD600 of 0.1 to initiate growth curves. At various times, culture aliquots were diluted and plated in dilutions on LB+Kan agar, and CFU were enumerated in duplicates. Growth of MG1655 inducible deletion strains was measured by culturing in the presence of 2-fold dilutions of arabinose (starting arabinose concentrations for CFT073 and MG1655 inducible deletion strains were 4% and 0.8%, respectively). While […] was sufficient for WT growth of MG1655 Δlgt, 4% arabinose was used for CFT073 Δlgt based on comparing its growth to that of WT CFT073 as measured by CFU. OD600 growth measurements were performed using an EnVision 2101 multilabel reader plate reader (PerkinElmer) linked with Echo liquid handler (Labcyte). For time-kill experiments, bacteria were harvested in mid-exponential phase and treated with 12.5 μM G2824, 3.2 μM globomycin, and 1.6 μM vancomycin. CFU were enumerated at various times posttreatment. Bacterial culture medium containing 2% arabinose was used to induce lpp or lppΔK expression from pBad24 plasmids. Bacterial viability at different time points during the treatment was measured by enumerating CFU. Serum killing assays were carried out as previously described ([17]).

SMILES: CN1C(=O)[C@H](Cc2ccc(-c3ccccc3)cc2)NC(=O)CNC(=O)[C@H](CC(=O)O)NC(=O)[C@@H](Cc2ccccc2)NC(=O)CSC[C@@H](C(=O)NCC(=O)N[C@@H](CCCCN)C(=O)N[C@@H](CCCCN)C(N)=O)NC(=O)[C@H](CCCNC(=N)N)NC(=O)[C@H](CO)NC(=O)[C@H](Cc2ccc(-c3ccccc3)cc2)NC(=O)[C@@H]1Cc1ccccc1 [G2824] ({CH2CO}-[dF]DG[Bip][NMeF][Bip]SRCGKK-NH2; thioether N-9)
- IC50 (E. coli Lgt): 180 nM
- solubility (Solubility (remark)): solubility issues

SMILES: CN1C(=O)[C@H](Cc2ccc(-c3ccccc3)cc2)NC(=O)CNC(=O)[C@H](CCCNC(=N)N)NC(=O)[C@@H](Cc2ccccc2)NC(=O)CSC[C@@H](C(=O)NCC(N)=O)NC(=O)[C@H](CCCNC(=N)N)NC(=O)[C@H](CO)NC(=O)[C@H](Cc2ccc(-c3ccccc3)cc2)NC(=O)[C@@H]1Cc1ccccc1 [G9066] ({CH2CO}-[dF]RG[Bip][NMeF][Bip]SRCG-NH2; thioether N-9)
- IC50 (E. coli Lgt): 240 nM

SMILES: CCCCCC[C@H]1OC(=O)CNC(=O)[C@H]([C@H](C)O)NC(=O)[C@H](CO)NC(=O)[C@H]([C@H](C)CC)NC(=O)[C@H](CC(C)C)N(C)C(=O)[C@@H]1C [Globomycin]
- accumulation of Lpp forms (CFT073 imp4213): accumulation of DGPLP and other PGN-linked Lpp forms
- sensitization by decreased lgt expression (BW25113 cells, lgt gRNA): not globomycin
- effect of lppΔK on bactericidal killing (cells expressing lppΔK): completely resistant
- on-target resistance mutations (LspA): no on-target resistance mutations have ever been identified

SMILES: CN[C@H](CC(C)C)C(=O)N[C@H]1C(=O)N[C@@H](CC(N)=O)C(=O)N[C@H]2C(=O)N[C@H]3C(=O)N[C@H](C(=O)N[C@H](C(=O)O)c4cc(O)cc(O)c4-c4cc3ccc4O)[C@H](O)c3ccc(c(Cl)c3)Oc3cc2cc(c3O[C@@H]2O[C@H](CO)[C@@H](O)[C@H](O)[C@H]2O[C@H]2C[C@](C)(N)[C@H](O)[C@H](C)O2)Oc2ccc(cc2Cl)[C@H]1O [Vancomycin]
- MIC (WT CFT073): > 100 µM
